Reference: US11617748B2, “Meclozine derivatives and diclazuril derivatives for use in the prevention and/or the treatment of disorders associated to the inflammation induced by P. acnes” (priority 2016, dated 2023)

Experiments:
Format in all cases: cell-based, human
IκB = assay: Western blot of IκB / p-IκB in P. acnes-stimulated HaCaT cells; conditions: 24 h pre-treatment; for degradation of p-IκB: 25 μM, P. acnes 30 min-24 h
Description: Western Blot analysis. Whole cell protein extracts (25 μg) were separated by electrophoresis (LDS-PAGE) under denaturing conditions with NuPAGE Novex 4-12% Bis-Tris gel (1 mm, 12 wells, Invitrogen, UK) and proteins were transferred onto nitrocellulose membranes and saturated in 20 ml of saturation buffer consisting of TBS 1× (Tris Buffered Saline) containing 200 mM Tris, 1.4 M NaCl (pH 7.6), 5% no fat milk, 0.1% Tween 20 for 1 h. After washing three times for 15 min with 15 ml of TBS/T buffer [1×TBS, 0.1% Tween-20], membranes were incubated overnight with gentle mixing at 4° C. with 10 ml of rabbit polyclonal primary antibodies against human ICAM-1 (SC-7891, 1:500), PPARα (SC-398394, 1:250), PPARβ (SC-74517, 1:200), PPARγ (SC-7196, 1:500), IκB (SC-371, 1:500), p-IκB (SC-7977, 1:500), Cox-2 (SC-7951, 1:250), p-mTOR (CS, Ref 2974, 1:1000), mTOR (CS, Ref 2972, 1:1000), p-p38 (SC-17852, 1:500), p38 (SC-535, 1:250), ERK (SC-94, 1:500), JNK (SC-571, 1:500), and mouse monoclonal primary antibodies against human p-PI3 kinase (CS, Ref 4228, 1:250), PI3 kinase (CS, Ref 4257, 1:250), p-Akt1/2/3 (SC-81433, 1:500), p-ERK (SC-7383, 1:500), p-JNK (SC-6254, 1:500), -actin used to control loading, (SC-47778, 1:1000) diluted in TBS/T supplemented with 5% BSA (antibodies were purchased from Santa Cruz Biotechnology, Inc., Santa Cruz, Calif., USA abbreviated SC; and from Cell Signaling Technology, Inc. Leiden, The Netherlands abbreviated CS above). After washing to remove unbound antibodies, bound primary antibodies were detected by incubation for 1 h using secondary antibody against rabbit- and mouse IgG (Santa Cruz Biotechnology, SC-2357, 1:5000 and SC-2005, 1:5000, respectively). Unbound material was removed by washing and peroxidase activity was detected in a chemiluminescence assay (WesternBright ECL, Advansta, Menlo Park, USA).
The molecular basis for the inhibition of IL-8 production by diclazuril and meclozine has been investigated, in particular it has been evaluated if they interfered with signaling pathways known to be activated when keratinocytes are stimulated with P. acnes. […]

p38 = assay: Western blot of p-p38/p38 in P. acnes-stimulated HaCaT cells; conditions: 25 μM, 24 h pre-treatment
Description: (§1) Western Blot analysis. Whole cell protein extracts (25 μg) were separated by electrophoresis (LDS-PAGE) under denaturing conditions with NuPAGE Novex 4-12% Bis-Tris gel (1 mm, 12 wells, Invitrogen, UK) and proteins were transferred onto nitrocellulose membranes and saturated in 20 ml of saturation buffer consisting of TBS 1× (Tris Buffered Saline) containing 200 mM Tris, 1.4 M NaCl (pH 7.6), 5% no fat milk, 0.1% Tween 20 for 1 h. […] After washing to remove unbound antibodies, bound primary antibodies were detected by incubation for 1 h using secondary antibody against rabbit- and mouse IgG (Santa Cruz Biotechnology, SC-2357, 1:5000 and SC-2005, 1:5000, respectively). Unbound material was removed by washing and peroxidase activity was detected in a chemiluminescence assay (WesternBright ECL, Advansta, Menlo Park, USA). […]

Cox-2 = assay: Western blot of Cox-2 expression in P. acnes-stimulated HaCaT cells; conditions: 25 μM, 24 h pre-treatment
Description: as §1

PPARγ = assay: Western blot of PPARγ expression in P. acnes-stimulated HaCaT cells; conditions: 25 μM, 24 h pre-treatment
Description: as §1

Row | SMILES | degradation of IκB (IκB; 10 μM, P. acnes 15-180 min) | degradation of p-IκB (IκB) | phosphorylation of p38 induced by P. acnes (p38) | expression of Cox-2 (Cox-2) | expression of PPARγ (PPARγ)
1 | N#CC(c1ccc(Cl)cc1)c1c(Cl)cc(-n2ncc(=O)[nH]c2=O)cc1Cl (centres unmarked) [diclazuril, Diclazuril] | did not prevented the degradation of IκB | did not alter the degradation of p-IκB | prevented the phosphorylation | decrease | no change
2 | Cc1cccc(CN2CCN(C(c3ccccc3)c3ccc(Cl)cc3)CC2)c1 (centres unmarked) [meclozine, Meclozine] |  | did not alter the degradation of p-IκB | prevented the phosphorylation | strongly decrease | 
